In the assay the target is Human eIF4E (Homo sapiens (Human), UniProt P06730). Description: Human eIF4E/4G binding assay (time-resolved fluorescence, HH-eIF4E and biotin-labeled 4G2 peptide). As to conditions: inhibition of binding of His-tagged human eIF4E (aa 28-217) to biotin-labeled 4G2 peptide. On the procedure: The protein was solubilized with 8 M urea and purified under denaturing conditions using nickel-charged HisTrap HP columns (GE Healthcare). The protein was refolded by diluting to approximately 0.25 mg/mL with 6 M urea, 20 mM Hepes pH 7.0, 500 mM NaCl, 1 mM DTT, 1 mM EDTA, and 0.5 M arginine.HCl, and then dialyzing overnight into the same buffer without the urea. The protein was further dialyzed into 20 mM Hepes pH 6.5, 50 mM NaCl, 1 mM EDTA, and 1 mM DTT, filtered, and then concentrated using Hitrap SP sepharose FF columns (GE Healthcare). The protein was dialyzed into 20 mM Hepes pH 7.0, 500 mM NaCl, 5 mM DTT, and 10% glycerol and stored at −80° C. until use. Test compounds (1.6 mM stock in DMSO) were diluted 3 fold in series in DMSO. Compound solutions were diluted 4 fold in Assay Buffer (50 mM sodium phosphate, pH 6.5, 50 mM KCl, 1 mM DTT and 0.5 mg/mL gammaglobulin). […] The samples were incubated at room temperature for 20 minutes. […] IC50 values were calculated using Condoseo software (Genedata AG).

Our source for the IC50 values is patent US9073881B2, “Benzoic acid derivatives” (HOFFMANN-LA ROCHE INC., priority 2011, dated 2015).

Sequence of Human eIF4E (P06730 28-217): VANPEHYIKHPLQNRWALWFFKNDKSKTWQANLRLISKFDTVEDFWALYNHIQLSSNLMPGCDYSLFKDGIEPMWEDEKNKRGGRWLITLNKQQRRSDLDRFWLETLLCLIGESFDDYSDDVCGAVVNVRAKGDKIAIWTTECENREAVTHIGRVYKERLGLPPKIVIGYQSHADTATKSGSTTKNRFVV

The term IC50 denotes the concentration at which inhibition is half-maximal. A high value points to a need for much substance. As for `O=C(O)c1cc(-c2nc(-c3ccc(Cl)c(Cl)c3)cs2)ccc1-c1cc(OC(F)(F)F)ccc1Cl` [Example 88, 2′-Chloro-4-[4-(3,4-dichloro-phenyl)-thiazol-2-yl]-5′-trifluoromethoxy-biphenyl-2-carboxylic acid], the IC50 stood at 0.6 µM. This counts as sub-micromolar.
`CCOc1ccc(-c2ccc(-c3nc(-c4ccc(Cl)c(Cl)c4)cs3)cc2C(=O)O)c(Cl)c1` [Example 89, 2′-Chloro-4-[4-(3,4-dichloro-phenyl)-thiazol-2-yl]-4′-ethoxy-biphenyl-2-carboxylic acid] registered an IC50 of 2 µM.
In the case of `COc1cccc(Cl)c1-c1ccc(-c2nc(-c3ccc(Cl)c(Cl)c3)cs2)cc1C(=O)O` [Example 90, 2′-Chloro-4-[4-(3,4-dichloro-phenyl)-thiazol-2-yl]-6′-methoxy-biphenyl-2-carboxylic acid], the IC50 was found to be 1.8 µM.
In turn, `COc1cccc(-c2ccc(-c3nc(-c4ccc(Cl)c(Cl)c4)cs3)cc2C(=O)O)c1` [Example 91, 4-[4-(3,4-Dichloro-phenyl)-thiazol-2-yl]-3′-methoxy-biphenyl-2-carboxylic acid] yielded an IC50 of 5 µM.
To `COc1ccccc1-c1ccc(-c2nc(-c3ccc(Cl)c(Cl)c3)cs2)cc1C(=O)O` [Example 92, 4-[4-(3,4-Dichloro-phenyl)-thiazol-2-yl]-2′-methoxy-biphenyl-2-carboxylic acid] belongs 4.8 µM; to `COc1ccc(Cl)c(-c2ccc(-c3nc(-c4ccc(Cl)c(Cl)c4)cs3)cc2C(=O)O)c1` [Example 93, 2′-Chloro-4-[4-(3,4-dichloro-phenyl)-thiazol-2-yl]-5′-methoxy-biphenyl-2-carboxylic acid], 3 µM; to `COc1ccc(-c2ccc(-c3nc(-c4ccc(Cl)c(Cl)c4)cs3)cc2C(=O)O)c(Cl)c1` [Example 94, 2′-Chloro-4-[4-(3,4-dichloro-phenyl)-thiazol-2-yl]-4′-methoxy-biphenyl-2-carboxylic acid], 1.5 µM.
The compound `O=C(O)c1cc(-c2nc(-c3ccc(Cl)c(Cl)c3)cs2)ccc1-c1cc(O)ccc1Cl` [Example 95, 2′-Chloro-4-[4-(3,4-dichloro-phenyl)-thiazol-2-yl]-5′-hydroxy-biphenyl-2-carboxylic acid] showed an IC50 of 3.4 µM.
To `Cc1ncccc1-c1ccc(-c2nc(-c3ccc(Cl)c(Cl)c3)cs2)cc1C(=O)O` [Example 98, 5-[4-(3,4-Dichloro-phenyl)-thiazol-2-yl]-2-(2-methyl-pyridin-3-yl)-benzoic acid] belongs 4 µM.
For `O=C(O)c1cc(-c2nc(-c3ccc(Cl)c(Cl)c3)cs2)ccc1-c1ccc(F)cn1` [Example 100, 5-[4-(3,4-Dichloro-phenyl)-thiazol-2-yl]-2-(5-fluoro-pyridin-2-yl)-benzoic acid], the IC50 worked out at 3 µM.
Consider `O=C(O)c1cc(-c2nc(-c3ccc(Cl)c(Cl)c3)cs2)ccc1-c1cncc(Cl)c1` [Example 102, 2-(5-Chloro-pyridin-3-yl)-5-[4-(3,4-dichloro-phenyl)-thiazol-2-yl]-benzoic acid], for which the IC50 amounted to 5.4 µM.
`O=C(O)c1cc(-c2nc(-c3ccc(Cl)c(Cl)c3)cs2)ccc1-c1ccncc1` [Example 103, 5-[4-(3,4-Dichloro-phenyl)-thiazol-2-yl]-2-pyridin-4-yl-benzoic acid] yielded an IC50 of 8.5 µM. Compared with the last compound, the IC50 is about 1.6-fold higher.
To `Cc1cc(C#N)ccc1-c1ccc(-c2nc(-c3ccc(Cl)c(Cl)c3)cs2)cc1C(=O)O` [Example 105, 4′-Cyano-4-[4-(3,4-dichloro-phenyl)-thiazol-2-yl]-2′-methyl-biphenyl-2-carboxylic acid] belongs 1.3 µM.
`N#Cc1ccc(-c2ccc(-c3nc(-c4ccc(Cl)c(Cl)c4)cs3)cc2C(=O)O)cc1` [Example 106, 4′-Cyano-4-[4-(3,4-dichloro-phenyl)-thiazol-2-yl]-biphenyl-2-carboxylic acid] returned an IC50 of 7.6 µM.
In turn, `N#Cc1cccc(-c2ccc(-c3nc(-c4ccc(Cl)c(Cl)c4)cs3)cc2C(=O)O)c1` [Example 107, 3′-Cyano-4-[4-(3,4-dichloro-phenyl)-thiazol-2-yl]-biphenyl-2-carboxylic acid] had an IC50 of 3.2 µM.
To `N#Cc1ccc(Cl)c(-c2ccc(-c3nc(-c4ccc(Cl)c(Cl)c4)cs3)cc2C(=O)O)c1` [Example 108, 2′-Chloro-5′-cyano-4-[4-(3,4-dichloro-phenyl)-thiazol-2-yl]-biphenyl-2-carboxylic acid] belongs 3.5 µM.
`NC(=O)c1ccc(Cl)c(-c2ccc(-c3nc(-c4ccc(Cl)c(Cl)c4)cs3)cc2C(=O)O)c1` [Example 109, 5′-Carbamoyl-2′-chloro-4-[4-(3,4-dichloro-phenyl)-thiazol-2-yl]-biphenyl-2-carboxylic acid] had an IC50 of 3.7 µM. The IC50 values of the last two compounds are within 1.5-fold of each other.
As to `N#Cc1ccc(Cl)cc1-c1ccc(-c2nc(-c3ccc(Cl)c(Cl)c3)cs2)cc1C(=O)O` [Example 110, 5′-Chloro-2′-cyano-4-[4-(3,4-dichloro-phenyl)-thiazol-2-yl]-biphenyl-2-carboxylic acid], the IC50 is 1.7 µM.
The compound `N#Cc1ccc(-c2ccc(-c3nc(-c4ccc(Cl)c(Cl)c4)cs3)cc2C(=O)O)cc1Cl` [Example 114, 3′-Chloro-4′-cyano-4-[4-(3,4-dichloro-phenyl)-thiazol-2-yl]-biphenyl-2-carboxylic acid] showed an IC50 of 1.7 µM.
To `N#Cc1cc(-c2ccc(-c3nc(-c4ccc(Cl)c(Cl)c4)cs3)cc2C(=O)O)ccc1Cl` [Example 115, 4′-Chloro-3′-cyano-4-[4-(3,4-dichloro-phenyl)-thiazol-2-yl]-biphenyl-2-carboxylic acid] belongs 1.9 µM; to `CC(=O)c1cccc(-c2ccc(-c3nc(-c4ccc(Cl)c(Cl)c4)cs3)cc2C(=O)O)c1` [Example 116, 3′-Acetyl-4-[4-(3,4-dichloro-phenyl)-thiazol-2-yl]-biphenyl-2-carboxylic acid], 7.7 µM; to `CC(=O)c1ccccc1-c1ccc(-c2nc(-c3ccc(Cl)c(Cl)c3)cs2)cc1C(=O)O` [Example 117, 2′-Acetyl-4-[4-(3,4-dichloro-phenyl)-thiazol-2-yl]-biphenyl-2-carboxylic acid], 7.7 µM.
With `CC(=O)c1ccc(Cl)c(-c2ccc(-c3nc(-c4ccc(Cl)c(Cl)c4)cs3)cc2C(=O)O)c1` [Example 118, 5′-Acetyl-2′-chloro-4-[4-(3,4-dichloro-phenyl)-thiazol-2-yl]-biphenyl-2-carboxylic acid], the IC50 was 1.5 µM.
On to `CC(=O)c1sccc1-c1ccc(-c2nc(-c3ccc(Cl)c(Cl)c3)cs2)cc1C(=O)O` [Example 119, 2-(2-Acetyl-thiophen-3-yl)-5-[4-(3,4-dichloro-phenyl)-thiazol-2-yl]-benzoic acid], for which the IC50 amounted to 9.6 µM.
The compound `CC(=O)c1ccc(-c2ccc(-c3nc(-c4ccc(Cl)c(Cl)c4)cs3)cc2C(=O)O)cc1` [Example 120, 4′-Acetyl-4-[4-(3,4-dichloro-phenyl)-thiazol-2-yl]-biphenyl-2-carboxylic acid] displayed an IC50 of 3.8 µM.
Next, `O=C(O)c1ccc(-c2ccc(-c3nc(-c4ccc(Cl)c(Cl)c4)cs3)cc2C(=O)O)c(F)c1` [Example 121, 4-[4-(3,4-Dichloro-phenyl)-thiazol-2-yl]-2′-fluoro-biphenyl-2,4′-dicarboxylic acid]: 6.1 µM.
In turn, `Cc1ccc(C=O)c(-c2ccc(-c3nc(-c4ccc(Cl)c(Cl)c4)cs3)cc2C(=O)O)c1` [Example 122, 4-[4-(3,4-Dichloro-phenyl)-thiazol-2-yl]-2′-formyl-5′-methyl-biphenyl-2-carboxylic acid] registered an IC50 of 5.1 µM.
As for `O=Cc1ccccc1-c1ccc(-c2nc(-c3ccc(Cl)c(Cl)c3)cs2)cc1C(=O)O` [Example 123, 4-[4-(3,4-Dichloro-phenyl)-thiazol-2-yl]-2′-formyl-biphenyl-2-carboxylic acid], the IC50 is 5.5 µM.
`O=C(O)c1cc(-c2nc(-c3ccc(Cl)c(Cl)c3)cs2)ccc1-c1ccc(C(F)(F)F)cc1C(F)(F)F` [Example 125, 4-[4-(3,4-Dichloro-phenyl)-thiazol-2-yl]-2′,4′-bis-trifluoromethyl-biphenyl-2-carboxylic acid] registered an IC50 of 3 µM.
`O=C(O)c1cc(-c2nc(-c3ccc(Cl)c(Cl)c3)cs2)ccc1-c1cccc(C(F)(F)F)c1Cl` [Example 126, 2′-Chloro-4-[4-(3,4-dichloro-phenyl)-thiazol-2-yl]-3′-trifluoromethyl-biphenyl-2-carboxylic acid] gave an IC50 of 2.8 µM.
In turn, `O=C(O)c1cc(-c2nc(-c3ccc(Cl)c(Cl)c3)cs2)ccc1-c1ccc(C(F)(F)F)cc1Cl` [Example 127, 2′-Chloro-4-[4-(3,4-dichloro-phenyl)-thiazol-2-yl]-4′-trifluoromethyl-biphenyl-2-carboxylic acid] returned an IC50 of 1.6 µM.
For the compound `O=C(O)c1cc(-c2nc(-c3ccc(Cl)c(Cl)c3)cs2)ccc1-c1cc(C(F)(F)F)ccc1Cl` [Example 128, 2′-Chloro-4-[4-(3,4-dichloro-phenyl)-thiazol-2-yl]-5′-trifluoromethyl-biphenyl-2-carboxylic acid], the IC50 worked out at 1.1 µM. This IC50 and that of the compound before are within 1.5-fold of each other.
As for `O=C(O)c1cc(-c2nc(-c3ccc(Cl)c(Cl)c3)cs2)ccc1-c1ccc(F)cc1` [Example 129, 4-[4-(3,4-Dichloro-phenyl)-thiazol-2-yl]-4′-fluoro-biphenyl-2-carboxylic acid], the IC50 was 2.6 µM. Against the preceding compound, the IC50 is about 2.4-fold higher.
Next, `O=C(O)c1cc(-c2nc(-c3ccc(Cl)c(Cl)c3)cs2)ccc1-c1cc(F)ccc1F` [Example 131, 4-[4-(3,4-Dichloro-phenyl)-thiazol-2-yl]-2′,5′-difluoro-biphenyl-2-carboxylic acid]: 1.8 µM.
